Source: patent publication US20240358611A1, “COMPOSITIONS” (SYMRISE AG, priority 2021, published 2024)

Tests used:
[1] = tested on: LPS-stimulated, pro-inflammatory synthesis of IL-1B in RAW macrophages; assay: LPS-stimulated IL-1B synthesis in RAW 264.7 macrophages (ELISA); type: cell-based, mouse; settings: LPS 10 ng/ml, 24 h
Procedure: (§1) RAW 264.7 (mouse macrophage tumor cells) cells were provided from the University of Cordoba in Spain and maintained in RPMI1640 medium containing FCS.
(§2) Cells are seeded in 24-well-plates (approx. 500 000 cells/ml in 1 ml) for ELISA experiments.
(§3) Cells are incubated without or with LPS (10 ng/ml) for 24 h. The pyrozol derivates or additives such as Thymol or Menthol (3 doses, 1, 10, 100 μM) are added 30 min before LPS treatment as single dose or in combination. […] After 24 h, supernatants are removed, centrifuged, and investigated for PGE2 concentrations in EIA (PGE2, from Cayman, isoprostane from Cayman) or ELISA (IL-1B, IL-6, TNF-alpha, Biotechne)). Each dose is investigated 2 times.
(§4) Optimal dose range for additives and substituted azacycles was determined in a preliminary assays dose finding assay (data not shown). Thus, test items are investigated at 10 μM 100 μM or any combination of the two doses for additive effects. Synergism is defined as additive effect surpassing the hypothetical mathematical value of effective doses. The hypothetical value is depicted in all graphs as dashed line.

[2] = tested on: LPS-stimulated, pro-inflammatory synthesis of PGE2 in RAW macrophages; assay: LPS-stimulated PGE2 synthesis in RAW 264.7 macrophages (EIA); type: cell-based, mouse; settings: 10 μM in combination with 10 μM Thymol, LPS 10 ng/ml, 24 h
Procedure: as §1, §2, §3, §4

[3] = in combination with Menthol, 10 μM or 100 μM each, all tested combinations
[4] = in combination with Thymol, 10 μM or 100 μM each

Row | Compound | effect on LPS-stimulated IL-1 beta synthesis [1, 3] | effect on LPS-stimulated IL-1 beta synthesis [1, 4] | effect on LPS-stimulated PGE2 synthesis [2] | effect on LPS-stimulated IL-1 beta synthesis ([1]; applied as single substance)
1 | CSC(C)C(=O)N1CCCC[C@@H]1c1ncc(-c2ccc(C)cc2)[nH]1 (stereo partly drawn) [CoNo11, 2-methylsulfanyl-1-[(1R)-2-[5-(p-tolyl)-1H-imidazol-2-yl]-1-piperidyl]-propan-1-one] | strong inhibition of IL-1 beta synthesis | strong synergistic soothing effect |  | 
2 | CCC(C)C(=O)N1CCCCC1c1ncc(-c2ccc(C)cc2)[nH]1 (stereo not drawn) [CoNo164, 2-methyl-1-[2-[5-(p-tolyl)-1H-imidazol-2-yl]-1-piperidyl]butan-1-one] | strong inhibition of IL-1 beta synthesis | strong synergistic soothing effect | synergistically mitigated PGE2 synthesis | 
3 | CC[C@H](C)C(=O)N1CCCCC1c1ncc(-c2ccc(C)cc2)[nH]1 (stereo partly drawn) [CoNo166, (2S)-2-methyl-1-[2-[5-(p-tolyl)-1H-imidazol-2-yl]-1-piperidyl]butan-1-one] | strong inhibition of IL-1 beta synthesis | strong synergistic soothing effect | synergistically mitigated PGE2 synthesis | 
4 | CC1CCC(C(C)C)C(O)C1 (stereo not drawn) [Menthol] |  |  |  | stimulates IL-1 beta synthesis
